Here are results for 26 substances from patent publication US20040102622A1, “Modulation of hepatocyte growth factor receptor expression” (Isis Pharmaceuticals Inc., priority 2002, published 2004).

This data set deals with human hepatocyte growth factor receptor mRNA.
With “ISIS 155118: 2′-MOE gapmer, phosphorothioate backbone, sequence catccagcatacagtttctt (antisense CATCCAGCATACAGTTTCTT; all phosphorothioate, sugars by position and methylation of C not given here; 2'-MOE gapmer)”, the “inhibition of human hepatocyte growth factor receptor expression” value (from here on “inhibition”) is recorded as “at least 35%”.
On to “ISIS 155119: 2′-MOE gapmer, phosphorothioate backbone, sequence aagtatattaaacacttcct (antisense AAGTATATTAAACACTTCCT; all phosphorothioate, sugars by position and methylation of C not given here; 2'-MOE gapmer)”, for which the “inhibition” value is recorded as “at least 35%”.
Take “ISIS 155120: 2′-MOE gapmer, phosphorothioate backbone, sequence gtgtcctattaaagcagtgc (antisense GTGTCCTATTAAAGCAGTGC; all phosphorothioate, sugars by position and methylation of C not given here; 2'-MOE gapmer)”: the “inhibition” value is given as “at least 35%”.
The same measure for “ISIS 155121: 2′-MOE gapmer, phosphorothioate backbone, sequence tgaaaggactttggctccca (antisense TGAAAGGACTTTGGCTCCCA; all phosphorothioate, sugars by position and methylation of C not given here; 2'-MOE gapmer)”: “at least 35%”; for “ISIS 155122: 2′-MOE gapmer, phosphorothioate backbone, sequence aagcctatccaaatgaggag (antisense AAGCCTATCCAAATGAGGAG; all phosphorothioate, sugars by position and methylation of C not given here; 2'-MOE gapmer)”: “at least 35%”; for “ISIS 155123: 2′-MOE gapmer, phosphorothioate backbone, sequence gcaaagctgtggtaaactct (antisense GCAAAGCTGTGGTAAACTCT; all phosphorothioate, sugars by position and methylation of C not given here; 2'-MOE gapmer)”: “at least 35%”.
Next, “ISIS 155124: 2′-MOE gapmer, phosphorothioate backbone, sequence tatgatgtctcccagaagga (antisense TATGATGTCTCCCAGAAGGA; all phosphorothioate, sugars by position and methylation of C not given here; 2'-MOE gapmer)”: “at least 35%”.
Regarding “ISIS 155125: 2′-MOE gapmer, phosphorothioate backbone, sequence ggaaactgatcttctggaaa (antisense GGAAACTGATCTTCTGGAAA; all phosphorothioate, sugars by position and methylation of C not given here; 2'-MOE gapmer)”, the “inhibition” value is “at least 35%”.
As to “ISIS 155126: 2′-MOE gapmer, phosphorothioate backbone, sequence ctgtgcatttcaatgtattc (antisense CTGTGCATTTCAATGTATTC; all phosphorothioate, sugars by position and methylation of C not given here; 2'-MOE gapmer)”, the “inhibition” value is recorded as “at least 35%”.
Next, “ISIS 155127: 2′-MOE gapmer, phosphorothioate backbone, sequence gatctggttgaactattact (antisense GATCTGGTTGAACTATTACT; all phosphorothioate, sugars by position and methylation of C not given here; 2'-MOE gapmer)”: “at least 35%”.
The same measure for “ISIS 155128: 2′-MOE gapmer, phosphorothioate backbone, sequence actgtgaatttttcatccag (antisense ACTGTGAATTTTTCATCCAG; all phosphorothioate, sugars by position and methylation of C not given here; 2'-MOE gapmer)”: “at least 35%”; for “ISIS 155129: 2′-MOE gapmer, phosphorothioate backbone, sequence gattgggtccgtaaaaatgc (antisense GATTGGGTCCGTAAAAATGC; all phosphorothioate, sugars by position and methylation of C not given here; 2'-MOE gapmer)”: “at least 35%”.
The same measure for “ISIS 155130: 2′-MOE gapmer, phosphorothioate backbone, sequence tctctgaactcaggtaaaac (antisense TCTCTGAACTCAGGTAAAAC; all phosphorothioate, sugars by position and methylation of C not given here; 2'-MOE gapmer)”: “at least 35%”; for “ISIS 155132: 2′-MOE gapmer, phosphorothioate backbone, sequence gattccctcggtcagaaatt (antisense GATTCCCTCGGTCAGAAATT; all phosphorothioate, sugars by position and methylation of C not given here; 2'-MOE gapmer)”: “at least 35%”.
As for “ISIS 155133: 2′-MOE gapmer, phosphorothioate backbone, sequence aaaccatttctgtagttggg (antisense AAACCATTTCTGTAGTTGGG; all phosphorothioate, sugars by position and methylation of C not given here; 2'-MOE gapmer)”, the “inhibition” value is given as “at least 35%”.
In the case of “ISIS 209521: 2′-MOE gapmer, phosphorothioate backbone, sequence ggaaccagtggagaagtcag (antisense GGAACCAGTGGAGAAGTCAG; all phosphorothioate, sugars by position and methylation of C not given here; 2'-MOE gapmer)”, the “inhibition” value is listed as “at least 35%”.
The same measure for “ISIS 209522: 2′-MOE gapmer, phosphorothioate backbone, sequence agaggtttatctttcggtgc (antisense AGAGGTTTATCTTTCGGTGC; all phosphorothioate, sugars by position and methylation of C not given here; 2'-MOE gapmer)”: “at least 35%”.
Next, “ISIS 209523: 2′-MOE gapmer, phosphorothioate backbone, sequence gggccttcattatgagaggt (antisense GGGCCTTCATTATGAGAGGT; all phosphorothioate, sugars by position and methylation of C not given here; 2'-MOE gapmer)”: “at least 35%”; “ISIS 209524: 2′-MOE gapmer, phosphorothioate backbone, sequence ctcatgtagaatgacattct (antisense CTCATGTAGAATGACATTCT; all phosphorothioate, sugars by position and methylation of C not given here; 2'-MOE gapmer)”: “at least 35%”.
The same measure for “ISIS 209525: 2′-MOE gapmer, phosphorothioate backbone, sequence ctggtccgtcaaaaacataa (antisense CTGGTCCGTCAAAAACATAA; all phosphorothioate, sugars by position and methylation of C not given here; 2'-MOE gapmer)”: “at least 35%”; for “ISIS 209526: 2′-MOE gapmer, phosphorothioate backbone, sequence ttgatagggaatgcacacat (antisense TTGATAGGGAATGCACACAT; all phosphorothioate, sugars by position and methylation of C not given here; 2'-MOE gapmer)”: “at least 35%”.
“ISIS 209527: 2′-MOE gapmer, phosphorothioate backbone, sequence cgcttcacagcctgatgaat (antisense CGCTTCACAGCCTGATGAAT; all phosphorothioate, sugars by position and methylation of C not given here; 2'-MOE gapmer)”: the “inhibition” value is reported as “at least 35%”.
The same measure for “ISIS 209528: 2′-MOE gapmer, phosphorothioate backbone, sequence ttgggaaaaccttgtagatt (antisense TTGGGAAAACCTTGTAGATT; all phosphorothioate, sugars by position and methylation of C not given here; 2'-MOE gapmer)”: “at least 35%”; for “ISIS 209529: 2′-MOE gapmer, phosphorothioate backbone, sequence cccagccacatatggtcagc (antisense CCCAGCCACATATGGTCAGC; all phosphorothioate, sugars by position and methylation of C not given here; 2'-MOE gapmer)”: “at least 35%”.
The same measure for “ISIS 209530: 2′-MOE gapmer, phosphorothioate backbone, sequence ttacaggatccacataggag (antisense TTACAGGATCCACATAGGAG; all phosphorothioate, sugars by position and methylation of C not given here; 2'-MOE gapmer)”: “at least 35%”; for “ISIS 209533: 2′-MOE gapmer, phosphorothioate backbone, sequence caccactggcaaagcaaaat (antisense CACCACTGGCAAAGCAAAAT; all phosphorothioate, sugars by position and methylation of C not given here; 2'-MOE gapmer)”: “at least 35%”.
